The values that follow come from PMC8596534, “Pyridine substituted BODIPYs: synthesis, characterization and cholinesterease, α-glucosidase inhibitory, DNA hydrolytic cleavage effects” (Turkish Journal of Chemistry, 2021).

In test [1] the target is acetylcholinesterase from Electrophorus electricus (AChE) (Electrophorus electricus, UniProt O42275). The experiment in a line: biochemical. Conditions: for SI (BuChE/AChE): selective index = IC50 BuChE/AChE. From the text: (§1) The materials, equipment, AChE, BuChE, α-glucosidase inhibitory, and DNA hydrolytic cleavage actions are given as supplementary information.
(§2) The results were expressed as IC50 and selective index (SI=BuChE/AChE) values.

Test [2] has as its target α-glucosidase from Saccharomyces cerevisiae. The experiment in a line: α-Glucosidase inhibition. The format is biochemical.
Description: as §1
The inhibitory properties of the compounds on α-glucosidase were investigated according to our previously reported methods. The results were expressed as IC50 values.

Test [3] deals with T1, butyrylcholinesterase from equine serum (BuChE) (Equus caballus, UniProt P81908).
T1 construct: butyrylcholinesterase from equine serum (BuChE); from tissue; host or cells: equine serum
The experiment in a line: BuChE inhibition. It counts as biochemical.
Description: as §1, §2

The target in test [4] is T2, AChE (Electrophorus electricus, UniProt O42275). The experiment in a line: Compound-protein binding by UV-Vis spectroscopy. To be noted: AChE 10 µM; BDPY-4 5, 10, 15 and 20 µM. Here is the method:
To determine the structural change of AChE (10 µM) induced by BDPY-4, we measured the UV-Vis spectroscopy by adding the compound (5, 10, 15, and 20 µM) into AChE solution (10 µM). AChE has an absorption peak at 282 nm due to aromatic amino acids.

Test [5] concerns the target T2, AChE. The experiment in a line: AChE inhibition mechanism (Lineweaver–Burk and Dixon plots). It counts as biochemical. To be noted: for Vmax: substrate acetylthiocholine iodide. From the text: Acetylthiocholine iodide was used as a substrate for AChE inhibition.

Sequence of acetylcholinesterase from Electrophorus electricus (AChE) (O42275 24-633): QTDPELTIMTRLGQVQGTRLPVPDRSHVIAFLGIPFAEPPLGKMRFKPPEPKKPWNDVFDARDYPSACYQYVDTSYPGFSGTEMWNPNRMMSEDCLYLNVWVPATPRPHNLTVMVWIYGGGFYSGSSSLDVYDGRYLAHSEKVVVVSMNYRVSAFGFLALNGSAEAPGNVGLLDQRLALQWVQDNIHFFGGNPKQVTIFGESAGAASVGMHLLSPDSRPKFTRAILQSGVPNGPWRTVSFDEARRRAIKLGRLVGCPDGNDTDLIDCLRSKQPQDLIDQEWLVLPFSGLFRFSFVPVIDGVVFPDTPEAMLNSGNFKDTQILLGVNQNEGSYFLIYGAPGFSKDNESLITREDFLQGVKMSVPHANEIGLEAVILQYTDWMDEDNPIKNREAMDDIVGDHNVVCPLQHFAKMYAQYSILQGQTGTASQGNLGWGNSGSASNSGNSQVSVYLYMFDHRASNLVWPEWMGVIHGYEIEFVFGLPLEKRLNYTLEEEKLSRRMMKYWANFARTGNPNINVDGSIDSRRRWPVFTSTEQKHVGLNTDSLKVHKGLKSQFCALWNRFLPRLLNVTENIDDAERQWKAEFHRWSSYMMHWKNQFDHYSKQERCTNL
T2 sequence (O42275 24-633): as above
T1 sequence (P81908 whole entry): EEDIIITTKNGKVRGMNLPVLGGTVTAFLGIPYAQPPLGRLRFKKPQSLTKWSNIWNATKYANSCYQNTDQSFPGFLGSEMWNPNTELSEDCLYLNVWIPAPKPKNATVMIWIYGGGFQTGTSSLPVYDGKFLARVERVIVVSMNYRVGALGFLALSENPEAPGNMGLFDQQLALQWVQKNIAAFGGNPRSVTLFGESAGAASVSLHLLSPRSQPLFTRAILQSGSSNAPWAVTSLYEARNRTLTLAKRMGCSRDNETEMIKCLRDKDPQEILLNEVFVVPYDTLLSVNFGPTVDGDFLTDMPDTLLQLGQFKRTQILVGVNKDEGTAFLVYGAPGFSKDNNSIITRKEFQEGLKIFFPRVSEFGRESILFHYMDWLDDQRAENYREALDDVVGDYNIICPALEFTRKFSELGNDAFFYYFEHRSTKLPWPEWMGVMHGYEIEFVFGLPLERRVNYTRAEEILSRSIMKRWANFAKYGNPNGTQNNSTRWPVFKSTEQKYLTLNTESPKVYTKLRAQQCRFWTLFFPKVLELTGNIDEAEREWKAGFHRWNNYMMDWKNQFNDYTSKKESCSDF

For `CC1=CC(C)=[N+]2C1=C(c1ccc(OCCCc3ccncc3)cc1)c1c(C)cc(C)n1[B-]2(F)F` [BDPY-2], the IC50 (in general, the concentration that inhibits the measured activity by half) in test [1] came to 72.5 ± 2.95 µM; in test [2] it was 219 ± 8.71 µM; in test [3], 185 ± 5.49 µM. Further, the “SI (BuChE/AChE)” value in test [1] is on record as 2.55.
Consider `CC1=CC(/C=C/c2ccc(OCCCc3ccncc3)cc2)=[N+]2C1=C(c1ccc(OCCCc3ccncc3)cc1)c1c(C)cc(/C=C/c3ccc(OCCCc4ccncc4)cc3)n1[B-]2(F)F` [BDPY-4], for which the “Change of AChE absorbance” value on AChE [4] is recorded as “hyperchromism”. In addition, the “Shift of AChE absorption peak” value on AChE [4] was “shifted from 282 nm to 285 nm”. Also, the values for the IC50 in test [1], in test [2] and in test [3] were 54.8 ± 4.51 µM, 95 ± 4.77 µM and 150 ± 6.09 µM, respectively. Besides, the “SI (BuChE/AChE)” value in test [1] is on record as 2.74. The Vmax (as a rule, the rate approached at saturating substrate) on AChE [5] (50 µM BDPY-4) is 196.08 µM/min; on AChE [5] (100 µM BDPY-4) it was 126.58 µM/min. Further, at AChE [5] (Dixon plot, read-out: Ki (inhibition constant)), the Ki (as a rule, the dissociation constant of the complex between target and ligand, obtained from inhibition or displacement) was 57.2 ± 0.2 µM. For the same compound, the Inhibitory type entry on AChE [5] (Lineweaver–Burk plot) is on record as “noncompetitive inhibitor”.
`CC1=CC(/C=C/c2ccc(OCCCc3cccnc3)cc2)=[N+]2C1=C(c1ccc(OCCCc3ccncc3)cc1)c1c(C)cc(/C=C/c3ccc(OCCCc4cccnc4)cc3)n1[B-]2(F)F` [BDPY-5]: the 50% inhibitory concentration (IC50) in test [1] worked out at 64.9 ± 3.89 µM; in test [2], 106 ± 5.03 µM; in test [3] it was 170 ± 4.33 µM. The “SI (BuChE/AChE)” value in test [1] was 2.62.
